Tested on: STC-1 cells
Assay: CCK release by STC-1 cells (competitive enzyme assay of the cell-conditioned medium)
Format: cell-based, mouse
Settings: positive control, 100 nM PMA in 2 mg/ml BSA, 4 hour
Method: The protein hydrolysates were added to the media of STC-1 cells at a protein concentration of approximately 2 mg/mL, and the enzyme controls were added at equivalent dilutions of the control reaction mixture (which included the enzyme(s) in the absence of protein substrate). Plotted is the % CCK released into the media of STC-1 cells stimulated by the different protein hydrolysates generated by the pepsin or pepsin and pancreatin enzymes, compared to the control 100 nM PMA (which was set as 100%). Cell culture media alone and 2 mg/mL bovine serum albumin (BSA) were used as negative background controls. The PMA control consisted of 100 nM PMA in cell culture media containing 2 mg/ml BSA. % CCK released into the cell culture media was calculated as follows: […]
It is known that protein, in general, stimulates the release of CCK by enteroendocrine cells in the intestinal track of animals, including humans (Liddle, R. A., et al., (1986) Proteins But Not Amino Acids, Carbohydrates, or Fats Stimulate Cholecystokinin Secretion in the Rat. Am. J. Physiol. 251 (Gastrointest. Liver Physiol. 14): G243-G248). […] Degree of hydrolysis was determined by the reaction of primary amine groups with o-phthalaldehyde (OPA) vs. total amount of primary amine present in sample after acid hydrolysis (110° C. for 24 hours) (known as, the “OPA method”). […]

CCCCCCCCCCCCCC(=O)O[C@@H]1[C@@H](C)[C@@]2(O)[C@@H](C=C(CO)C[C@]3(O)C(=O)C(C)=C[C@@H]23)[C@@H]2C(C)(C)[C@]12OC(C)=O [PMA, phorbol 12-myristate-13-acetate]
CCK Release (ng/ml) mean ± sem: 0.171 ± 0.003 ng/mL

— US20110257087A1, “Protein Hydrolysate Compositions Having Enhanced CCK Releasing Activity” (SOLAE, LLC, priority 2008, published 2011)
